The values that follow come from publication PMC10663924 (Saudi Pharmaceutical Journal : SPJ, 2023).

The nature of one series: Liver function test. The settings on record: mice; for ALT level: control 25.2 ± 1.2; for AST level: control 29.1 ± 1.1.
For another series, the system named is HepG2 cell lines. Briefly: cells. The format is cell-based. The conditions noted are these: Homo sapiens, HepG2, read-out: IC50 proliferation of HepG2 (abstract).
The target in the next series is Human PDGFRβ (Homo sapiens, UniProt P09619). The series is described as follows: In vitro multikinase assay.
For a further series, the system named is TNF-α. The series is described as follows: qRT-PCR of TNF-α in MCF7 cells. The settings on record: treated MCF7 cells vs control. The format is cell-based.
Another series relates to IL-2. Briefly: qRT-PCR of IL-2 in MCF7 cells. The format is cell-based. The settings on record: treated MCF7 cells vs control. For orientation: Real-time PCR tracks product formation cycle by cycle.
Another series addresses human VEGFR-2 (Homo sapiens, UniProt P35968). The series is described as follows: biochemical.
Series [1] in a line: Determination of LD50 in mice. It counts as in vivo. The settings on record: male, BALB/c, mouse, in vivo, po.
The next series concerns BALB/c male mice. The series is described as follows: Determination of LD50 in mice. The settings on record: mice, 1 and 3 gm/kg single dose orally, 24 h. The format is in vivo.
The next series has as its system MCF7 cell lines. Briefly: cells. The format is cell-based. The conditions noted are these: Homo sapiens, MCF7, read-out: IC50 proliferation of MCF7 (abstract).
The next series concerns the target Human EGFR (Homo sapiens, UniProt P00533). The series is described as follows: In vitro multikinase assay.
Series [2] has as its system MCF7 cells. Briefly: Annexin V / PI flow cytometry apoptosis analysis. The format is cell-based. The settings on record: 30.95 µM. (In flow cytometry, cells or beads pass a laser one at a time.)
The test system of series [3] is MCF7 cells. Briefly: Scratch. It counts as cell-based.
The test system of another series is Vero cell line. The series is described as follows: MTT safety assay, Vero normal cells. The format is cell-based. The conditions noted are these: Chlorocebus sabaeus, read-out: IC50 against normal cell line (Vero). On the technique in general: Tetrazolium assays rely on reduction of a dye to a coloured formazan, in cell work by metabolically active cells.
[4] abbreviates: 100 mg/kg oral single dose (group II).
Setting [5] is: 200 mg/kg oral single dose (group III).

Sequence of human VEGFR-2 (P35968 20-1356): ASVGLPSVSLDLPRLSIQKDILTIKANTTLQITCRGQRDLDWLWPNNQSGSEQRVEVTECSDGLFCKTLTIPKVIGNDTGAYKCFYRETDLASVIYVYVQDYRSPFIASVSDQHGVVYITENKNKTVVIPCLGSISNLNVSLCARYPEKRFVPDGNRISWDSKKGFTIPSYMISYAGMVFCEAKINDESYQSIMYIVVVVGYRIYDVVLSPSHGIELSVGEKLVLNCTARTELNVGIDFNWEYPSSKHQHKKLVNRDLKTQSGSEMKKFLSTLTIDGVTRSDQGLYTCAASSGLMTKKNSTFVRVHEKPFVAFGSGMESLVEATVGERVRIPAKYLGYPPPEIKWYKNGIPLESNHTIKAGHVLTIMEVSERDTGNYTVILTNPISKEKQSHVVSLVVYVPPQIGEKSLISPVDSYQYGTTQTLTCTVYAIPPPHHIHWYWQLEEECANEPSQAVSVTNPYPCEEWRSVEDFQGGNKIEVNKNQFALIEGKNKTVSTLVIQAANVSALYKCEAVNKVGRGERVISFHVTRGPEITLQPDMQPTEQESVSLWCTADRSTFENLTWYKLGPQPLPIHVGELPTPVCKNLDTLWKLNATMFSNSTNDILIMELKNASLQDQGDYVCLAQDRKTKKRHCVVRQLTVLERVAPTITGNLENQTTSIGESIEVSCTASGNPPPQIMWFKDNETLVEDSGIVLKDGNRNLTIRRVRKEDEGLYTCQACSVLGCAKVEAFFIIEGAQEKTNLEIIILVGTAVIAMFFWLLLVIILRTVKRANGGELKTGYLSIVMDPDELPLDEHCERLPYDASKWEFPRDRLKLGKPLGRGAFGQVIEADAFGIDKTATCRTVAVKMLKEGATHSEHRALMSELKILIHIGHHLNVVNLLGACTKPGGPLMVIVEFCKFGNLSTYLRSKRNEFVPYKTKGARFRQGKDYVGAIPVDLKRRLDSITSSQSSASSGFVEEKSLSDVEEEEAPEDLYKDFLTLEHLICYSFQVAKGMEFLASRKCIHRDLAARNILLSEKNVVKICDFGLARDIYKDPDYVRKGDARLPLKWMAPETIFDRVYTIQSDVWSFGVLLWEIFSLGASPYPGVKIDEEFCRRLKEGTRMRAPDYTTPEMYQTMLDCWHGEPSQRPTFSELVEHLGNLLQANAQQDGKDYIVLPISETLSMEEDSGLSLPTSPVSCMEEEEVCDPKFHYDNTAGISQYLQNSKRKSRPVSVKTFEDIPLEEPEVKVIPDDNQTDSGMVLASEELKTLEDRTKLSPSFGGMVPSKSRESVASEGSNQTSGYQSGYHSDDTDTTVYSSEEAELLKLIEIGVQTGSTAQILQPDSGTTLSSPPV
Sequence of Human PDGFRβ (P09619 33-1106): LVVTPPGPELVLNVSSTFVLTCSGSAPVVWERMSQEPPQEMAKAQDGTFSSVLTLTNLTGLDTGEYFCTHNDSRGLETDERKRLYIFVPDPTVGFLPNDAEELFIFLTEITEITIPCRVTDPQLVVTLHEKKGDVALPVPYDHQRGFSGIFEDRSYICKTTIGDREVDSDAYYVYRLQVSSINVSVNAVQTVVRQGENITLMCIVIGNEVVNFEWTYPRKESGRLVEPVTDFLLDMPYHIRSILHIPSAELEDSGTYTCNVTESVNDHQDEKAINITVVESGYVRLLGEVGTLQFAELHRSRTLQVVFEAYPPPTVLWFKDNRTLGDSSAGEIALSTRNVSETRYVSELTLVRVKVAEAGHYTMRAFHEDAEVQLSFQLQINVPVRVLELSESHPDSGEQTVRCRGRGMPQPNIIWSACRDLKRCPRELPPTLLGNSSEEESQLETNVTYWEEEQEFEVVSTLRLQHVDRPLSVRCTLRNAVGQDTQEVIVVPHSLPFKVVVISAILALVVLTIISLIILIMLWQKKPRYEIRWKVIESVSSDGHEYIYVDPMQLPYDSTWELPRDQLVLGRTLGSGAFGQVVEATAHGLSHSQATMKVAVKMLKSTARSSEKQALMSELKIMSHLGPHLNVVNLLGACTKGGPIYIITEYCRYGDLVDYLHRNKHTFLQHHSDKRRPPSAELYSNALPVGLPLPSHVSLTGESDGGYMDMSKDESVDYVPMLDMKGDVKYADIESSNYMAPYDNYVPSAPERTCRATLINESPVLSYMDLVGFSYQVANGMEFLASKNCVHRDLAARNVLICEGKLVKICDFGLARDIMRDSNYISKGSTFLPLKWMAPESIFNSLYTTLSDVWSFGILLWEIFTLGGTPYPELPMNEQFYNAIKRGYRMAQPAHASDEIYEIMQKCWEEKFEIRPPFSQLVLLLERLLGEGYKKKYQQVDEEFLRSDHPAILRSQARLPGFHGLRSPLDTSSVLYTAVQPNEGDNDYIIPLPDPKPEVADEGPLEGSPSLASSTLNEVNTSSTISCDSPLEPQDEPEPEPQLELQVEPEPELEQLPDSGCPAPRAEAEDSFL
Sequence of Human EGFR (P00533 25-1210): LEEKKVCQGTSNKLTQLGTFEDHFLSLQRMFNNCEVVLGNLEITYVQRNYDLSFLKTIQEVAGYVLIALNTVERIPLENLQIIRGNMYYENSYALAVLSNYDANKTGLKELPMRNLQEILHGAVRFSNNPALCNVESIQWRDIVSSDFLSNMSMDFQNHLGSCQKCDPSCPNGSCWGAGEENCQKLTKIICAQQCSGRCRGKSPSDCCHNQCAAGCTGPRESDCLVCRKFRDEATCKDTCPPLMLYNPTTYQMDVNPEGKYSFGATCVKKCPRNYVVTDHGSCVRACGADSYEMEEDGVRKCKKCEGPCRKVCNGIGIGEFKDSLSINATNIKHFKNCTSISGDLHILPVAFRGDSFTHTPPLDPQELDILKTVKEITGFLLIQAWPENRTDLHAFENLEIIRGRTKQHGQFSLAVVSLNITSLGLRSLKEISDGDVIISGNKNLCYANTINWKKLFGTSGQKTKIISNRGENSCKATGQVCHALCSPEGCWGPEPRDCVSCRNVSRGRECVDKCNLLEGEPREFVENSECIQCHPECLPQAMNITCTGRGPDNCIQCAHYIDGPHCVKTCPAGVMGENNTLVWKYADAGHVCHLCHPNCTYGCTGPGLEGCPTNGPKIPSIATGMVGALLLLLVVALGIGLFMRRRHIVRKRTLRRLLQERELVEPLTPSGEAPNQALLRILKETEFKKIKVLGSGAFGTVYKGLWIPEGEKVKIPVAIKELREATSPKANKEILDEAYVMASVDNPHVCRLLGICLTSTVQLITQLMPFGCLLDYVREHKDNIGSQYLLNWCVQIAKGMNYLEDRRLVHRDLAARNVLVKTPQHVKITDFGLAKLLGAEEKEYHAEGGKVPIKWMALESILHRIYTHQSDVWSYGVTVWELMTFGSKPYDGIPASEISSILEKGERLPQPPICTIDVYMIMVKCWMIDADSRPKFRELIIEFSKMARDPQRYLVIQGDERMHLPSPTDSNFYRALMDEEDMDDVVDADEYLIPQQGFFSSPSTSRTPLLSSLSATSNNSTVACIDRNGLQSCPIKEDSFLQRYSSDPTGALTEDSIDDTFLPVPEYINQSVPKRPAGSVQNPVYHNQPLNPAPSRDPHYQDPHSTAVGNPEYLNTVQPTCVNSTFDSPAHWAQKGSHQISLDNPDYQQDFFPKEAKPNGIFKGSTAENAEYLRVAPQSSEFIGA

In the series “Liver function test” (setting [4]), `CC(=NNC(=O)c1cccc(C)c1)c1ccc(NC(=O)Cn2c(=O)c3c(ncn3C)n(C)c2=O)cc1` [T-1-MBHEPA, 2-(3,7-dimethyl-2,6-dioxo-2,3,6,7-tetrahydro-1H-purin-1-yl)-N-(4-(1-(2-(3-methylbenzoyl)hydrazono)ethyl)phenyl)acetamide] yielded an ALT level of 25.3 ± 2.1 and an AST level of 29.2 ± 1.1. In “Liver function test” (setting [5]), this compound gave an ALT level of 28.9 ± 2.1 and an AST level of 31.7 ± 1.8. Moreover, the IC50 with HepG2 cell lines came to 4610 nM. Moreover, the IC50 against Human PDGFRβ was determined as 179 ± 9 nM. Further, the “Reduction of TNF-α production” value in the series with TNF-α is given as 33%. The “Reduction of IL-2 production” value in the series on IL-2 came to 58%. In addition, on human VEGFR-2, the IC50 is 121 ± 51 nM. Also, in series [1], the LD50 – broadly, the dose expected to kill half of the subjects tested – at 24 h amounted to 5000 mg/kg. Moreover, in the series on BALB/c male mice, the “Tolerability of the other doses” value is on record as “well tolerated”. Moreover, in the series with MCF7 cell lines, the IC50 is 4850 nM. Moreover, on Human EGFR, the IC50 was found to be 355 ± 14 nM. Besides, in the series with MCF7 cells [2], the “Apoptosis Early %” value came to 7.22%, the “Apoptosis Late %” value is listed as 2.72%, the “Apoptosis Total %” value turned out to be 21.35% and the Necrosis % was 11.41%. Further, in the series with MCF7 cells [3] (MCF7), the “Scratch area at 48 h” value stood at 892.6667 and the “Scratch width at 48 h” value is listed as 891.751. Further, in the series with MCF7 cells [3] (MCF7, 48 h), the Area difference % is 71.333%, the RM um worked out at 1.485 um and the “Wound closure % um^2” value was determined as 7.399 % um^2. For the same compound, the “Decrease of scratch width (healing and migration) within 48 h” value in the series with MCF7 cells [3] (MCF7, 48 h, untreated 65.9 %) is given as 7.4%. The IC50 in the series with Vero cell line was determined as 80000 nM.
